According to EP1266655A1, “ENTERIC GRANULAR PREPARATIONS OF HARDLY WATER SOLUBLE DRUGS CHARACTERIZED BY CONTAINING WATER-REPELLENT COMPONENT” (SHIONOGI & CO., LTD., priority 2000, dated 2001):
Converted amounts (≈) assume the structure as drawn.

Test: Solubility of Compound A in several test solutions
Type: physicochemical
Source text: Compound A was used as an insoluble active ingredient in the following references and examples.

CC1(C)[C@H]2C[C@H](C/C=C\CCCC(=O)O)[C@@H](NC(=O)c3csc4ccc(O)cc34)[C@@H]1C2 [Compound A, (Z)-7-[(1R,2R,3S,5S)-2-(5-hydroxybenzo[b]thiophen-3-ylcarbonylamino)-10-norpinan-3-yl]-5-heptenoic acid]
solubility at 3 h (Water, 3 hours, final pH 5.81): 5.56 µg/mL (≈ 12.6 µM) | solubility at 6 h (Water, 6 hours, final pH 5.81): 5.93 µg/mL (≈ 13.4 µM) | solubility at 3 h (jp-2 solution, JP-2 Sol., 3 hours, final pH 6.84): 81.1 µg/mL (≈ 184 µM) | solubility at 6 h (jp-2 solution, JP-2 Sol., 6 hours, final pH 6.84): 81.7 µg/mL (≈ 185 µM) | solubility at 3 h (ph 6.0 test solution, pH6.0, 3 hours, final pH 6.08): 15.2 µg/mL (≈ 34.4 µM) | solubility at 6 h (ph 6.0 test solution, pH6.0, 6 hours, final pH 6.08): 15.6 µg/mL (≈ 35.3 µM) | solubility at 3 h (ph 7.8 test solution, pH7.8, 3 hours, final pH 7.6): 488 µg/mL (≈ 1100 µM) | solubility at 6 h (ph 7.8 test solution, pH7.8, 6 hours, final pH 7.6): 489 µg/mL (≈ 1110 µM) | solubility at 3 h (ph 8.0 test solution, pH8.0, 3 hours, final pH 7.76): 653 µg/mL (≈ 1480 µM) | solubility at 6 h (ph 8.0 test solution, pH8.0, 6 hours, final pH 7.76): 676 µg/mL (≈ 1530 µM) | solubility at 3 h (ph 8.5 test solution, pH8.5, 3 hours, final pH 8.29): 6200 µg/mL (≈ 14000 µM) | solubility at 6 h (ph 8.5 test solution, pH8.5, 6 hours, final pH 8.29): 6220 µg/mL (≈ 14100 µM)
